≈ marks a conversion by molar mass, not a printed value. Like-named read-outs stand apart in the source and are kept apart here.
Tests used:
[1] = solubility in buffer solution, HPLC; format: physicochemical; conditions: kinetic from dmso stock
Protocol: A solution of compounds (10 mM in dimethylsulfoxide, 2 μL) was diluted with 50% acetonitrile (198 μL), and this solution was used as a standard solution.
On the other hand, a solution of compounds (10 mM in dimethylsulfoxide, 15 μL) was transferred to a 96 well plate, then solvent was removed in vacuo. Dimethyl sulfoxide (3 μL) was added to dissolve a residual solid, and then buffer solution (pH7.4 or 1.2, 300 μL) was added. The mixture was vigorously stirred for 90 min, then leave it for 16-20 h. An insoluble material was removed, then the solution was analyzed by HPLC. The concentration of compound, which was corresponding to a solubility of the compound, was determined by the comparison with area value between sample and the standard solution.

FaDu = test: colony formation assay (cell viability determination); format: cell-based; conditions: Homo sapiens; FaDu cells, colonies counted after 7-10 days; read-out: colonyformation IC50
Protocol: Cell Culture: FaDu (ATCC, Manassas, Va.) was maintained in Dulbecco's Modified Eagle Medium (DMEM) (Invitrogen, Carlsbad, Calif.) supplemented with 10% fetal bovine serum (FBS) (Gemini Bio-Products, West Sacramento, Calif.) and 5% penicillin/streptomycin/amphotercin B (Invitrogen).
Cell Viability Determination: For colony formation assay, cells were plated in 6 well plates at 2000 cells per well. Twenty-four hours after plating, cells were treated with compound. Colonies were allowed to develop for 7-10 days, at which they were stained with modified Giemsa stain (Sigma). Stained colonies were then counted to determine IC50.

[2] = tested on: CD44high FaDu cancer stem cells; test: sphere assay (sphere formation of CSC); format: cell-based; conditions: Homo sapiens, spheres scored after 10-14 days
Source text: CSC isolation with surface markers: Sorting tumor cells based primarily upon the differential expression of the surface marker(s), such as CD44 or CD133, have accounted for the majority of the highly tumorigenic CSCs described to date. CD44^high cells were isolated by FACS according to the methods described in Ponti et al, with slight modification [Ponti, D., et al, Isolation and in vitro propagation of tumorigenic breast cancer cells with stem/progenitor cell properties. Cancer Res, 2005. 65(13); p. 5506-11.], Briefly, after trypsinization and recovery of cells for 30 minutes at 37° C. in growth media, cells were pelleted at 400×g and were resuspended in PBS with 2% FBS and ImM EDTA at 1×10^6 cells/mL. Cells were then incubated on ice with a 1:100 dilution of CD44-FITC (BD Biosicences, San Diego, Calif.) for 15 minutes. Alternatively, CD24-PE (BD Bioscences, San Diego, Calif.) (1:100) was utilized for negative selection. After washing three times, cells were resuspended at […] and passed through a […] before sorting.
Sphere assay: A reliable method of measuring the self-renewal capacity of cell population if the ability to be cultured as spheres in the absence of serum or attachment. CD44^high FaDu cancer stem cells were cultured in ultra low attachment plates in cancer stem cell media (DMEM/F12, B27 Neurobasal supplement, 20 ng/ml EGF, 10 ng/rnl FGF, 4 µg/ml insulin, and 0.4% BSA) to allow spheres formation. Typically, sphere formation was evaluated by microscopy after 10-14 days in culture and spheres with >50 cells were scored.

[3] = aqueous buffer, buffer solution pH 7.4, read-out: solubility pH 7.4
[4] = simulated gastric fluid, buffer solution pH 1.2, read-out: solubility pH 1.2

SMILES	solubility [1, 3]	solubility [1, 4]	IC50 [2]	IC50 (FaDu)
CCN(CC)CCNC(=O)c1c(C)[nH]c(/C=C2\C(=O)Nc3ccc(-c4cnc(-c5ccccc5)[nH]4)cc32)c1C [Example 41]	0.3 µg/mL (≈ 0.574 µM)	186 µg/mL (≈ 356 µM)	–	–
Cc1nc(-c2ccccc2)oc1-c1ccc2c(c1)NC(=O)/C2=C\c1[nH]c(C)c(C(=O)N2CCN(C)CC2)c1C [Example 38]	–	–	2000 nM	6200 nM
CCN(CC)CCNC(=O)c1c(C)[nH]c(/C=C2\C(=O)Nc3ccc(-c4ccc(-c5cccnc5)s4)cc32)c1C [Example 26]	< 0.5 µg/mL	> 200 µg/mL	–	–
Cc1[nH]c(/C=C2\C(=O)Nc3ccc(-c4cnn(-c5ccccn5)c4)cc32)c(C)c1C(=O)N1CCN(C)CC1 [Example 31]	–	–	200 nM	–
CCN(CC)CCNC(=O)c1c(C)[nH]c(/C=C2\C(=O)Nc3ccc(-c4cn(-c5ccccc5)nn4)cc32)c1C [Example 48]	< 0.3 µg/mL	147 µg/mL (≈ 281 µM)	–	–
CCN(CC)CCNC(=O)c1c(C)[nH]c(/C=C2\C(=O)Nc3ccc(C4CCN(c5ccccc5)CC4)cc32)c1C [Example 42]	11 µg/mL (≈ 20.4 µM)	> 200 µg/mL	–	–
Cc1[nH]c(/C=C2\C(=O)Nc3ccc(-c4cnn(-c5ccccn5)c4)cc32)c(C)c1C(=O)N1CCOCC1 [Example 30]	–	–	–	> 100000 nM
CCN(CC)CCNC(=O)c1c(C)[nH]c(/C=C2\C(=O)Nc3ccc(C4CCN(c5ncccn5)CC4)cc32)c1C [Example 43]	0.4 µg/mL (≈ 0.738 µM)	163 µg/mL (≈ 301 µM)	1900 nM	–
CCN(CC)CCNC(=O)c1c(C)[nH]c(/C=C2\C(=O)Nc3ccc(-n4cc(-c5ccccc5)nn4)cc32)c1C [Example 49]	13 µg/mL (≈ 24.8 µM)	109 µg/mL (≈ 208 µM)	–	–
CCN(CC)CCNC(=O)c1c(C)[nH]c(/C=C2\C(=O)Nc3ccc(C4CCN(C5CCOCC5)CC4)cc32)c1C [Example 12]	> 200 µg/mL	> 200 µg/mL	> 50000 nM	–
CCN(CC)CCNC(=O)c1c(C)[nH]c(/C=C2\C(=O)Nc3ccc(C4CCN(C5CCN(C(C)=O)CC5)CC4)cc32)c1C [Example 45]	–	–	> 50000 nM	–

The next lines start with results.

solubility [1, 3]	solubility [1, 4]	IC50 [2]	SMILES	IC50 (FaDu)
0.5 µg/mL (≈ 0.932 µM)	43 µg/mL (≈ 80.1 µM)	–	CCN(CC)CCNC(=O)c1c(C)[nH]c(/C=C2\C(=O)Nc3ccc(-c4cc(-c5ccccc5)nn4C)cc32)c1C [Example 55]	–
61 µg/mL (≈ 116 µM)	> 200 µg/mL	–	CCN(CC)CCNC(=O)c1c(C)[nH]c(/C=C2\C(=O)Nc3ccc(-c4nnc(-c5ccccc5)o4)cc32)c1C [Example 53]	–
< 0.5 µg/mL	> 200 µg/mL	–	CCN(CC)CCNC(=O)c1c(C)[nH]c(/C=C2\C(=O)Nc3ccc(-c4nc(-c5ccccc5)cs4)cc32)c1C [Example 51, (Z)—N-(2-(diethylamino)ethyl)-2,4-dimethyl-5-((2-oxo-5-(4-phenylthiazol-2-yl)indolin-3-ylidene)methyl)-1H-pyrrole-3-carboxamide]	–
7 µg/mL (≈ 13.4 µM)	154 µg/mL (≈ 294 µM)	–	CCN(CC)CCNC(=O)c1c(C)[nH]c(/C=C2\C(=O)Nc3ccc(-c4nc(-c5ccccc5)n[nH]4)cc32)c1C [Example 50]	–
4 µg/mL (≈ 7.4 µM)	163 µg/mL (≈ 301 µM)	–	CCN(CC)CCNC(=O)c1c(C)[nH]c(/C=C2\C(=O)Nc3ccc(-c4nnc(-c5ccccc5)s4)cc32)c1C [Example 52]	–

— patent US9227962B2, “Heterocyclic substituted-3-heteroarylidenyl-2-indolinone derivative” (Dainippon Sumitomo Pharma Co., Ltd., priority 2013, dated 2016)
